# From PMC9569529, “Safe and Efficient Sigma1 Ligand: A Potential Drug Candidate for Multiple Sclerosis” (International Journal of Molecular Sciences, 2022)
# pKi: −log10 of the molar value.
# What was measured:
# S1R–BiP complex = assay: S1R-BiP dissociation assay in CHO cells (co-IP, ELISA); format: cell-based
# Protocol: The activity of compound 7i was evaluated in regard to its ability to dissociate the S1R–BiP complex. The S1R–BiP dissociation assay was performed by Amylgen (Montferrier-sur-Lez, France) as described in [13, 79]. Briefly, CHO cells were treated with test compounds for 30 min (37 °C). Crosslinking was performed with dithiobis succinimidyl propionate (DSP; Thermoscientific, Waltham, MA, USA). Lysis was performed after incubation for 15 min on ice. After centrifugation, supernatants were incubated overnight (4 °C) with the S1R antibody (Abcam, Cambridge, UK). Lysates were incubated with Sepharose Protein-A (Invitrogen). After the first centrifugation, the pellet was resuspended in radioimmunoprecipitation assay (RIPA) buffer. After a second centrifugation, the pellet was resuspended in 2× sample buffer/bMCE buffer. After the third centrifugation, supernatants were analyzed for BiP immunoreactivity (SEC343Mu ELISA, USCNK Life Sciences, Wuhan, China).
# CYP1A2 = assay: CYP induction in human hepatocytes (mRNA, qPCR); format: in vitro ADME; conditions: 10 µM
# Protocol: (§1) The compound was classically evaluated at 10 µM for all the ADME analyses. Bidirectional permeability (apical A to basolateral B pH 6.5/7.4 and basolateral B to apical A pH 7.4/6.5) was assessed in the epithelial colorectal adenocarcinoma cell line (Caco-2 cell line). Results were expressed as × 10^−6cm/s (Papp) and as % recovery. Efflux ratio, i.e., Papp(B-A)/Papp(A-B), was calculated. Plasma protein binding was analyzed by HPLC-MS/MS after 4-h incubation at 37 °C, as described by Banker et al.. Concentration was evaluated by LC/MS-MS. CYP inhibition was performed in human liver microsomes as described in [61]. Analysis of the respective metabolites. was performed by HPLC-MS/MS. Transporter inhibition analysis was also performed in overexpressing cell lines. Respective metabolites for each specific transporter substrate were analyzed by fluorometry or scintillation counting and % inhibition of control values were calculated. P-glycoprotein transporter substrate assessment was performed by bidirectional permeability analysis (apical A to basolateral B pH 7.4/7.4 and basolateral B to apical A pH 7.4/7.4) in the Caco-2 cell line with and without verapamil, as described in [59]. Results were expressed as ×10^−6 cm/s (Papp) and as % recovery. The efflux ratio, i.e., Papp(B-A)/Papp(A-B), was calculated. CYP450 induction characterization was performed on human hepatocytes. The mRNA levels of 7 different CYPs were analyzed by qPCR, as described in [72]. The compound was evaluated at 1, 10 and 100 µM. Fold-induction values were determined and compared to cut-off values, as defined for each CYP isozyme in each hepatocyte lot.
# CYP3A4 = assay: CYP induction in human hepatocytes (mRNA, qPCR); format: in vitro ADME; conditions: 10 µM
# Protocol: as §1
# CYP2B6 = assay: CYP induction in human hepatocytes (mRNA, qPCR); format: in vitro ADME; conditions: 10 µM
# Protocol: as §1
# P-gp [1] = tested on: T1, P-gp; assay: P-gp substrate assessment, Caco-2 with and without verapamil; format: in vitro ADME; conditions: human
# T1 construct: in the Caco-2 cell line with and without verapamil; host or cells: Caco-2
# Protocol: as §1
# P-gp [2] = molecular target: T2, P-gp (Homo sapiens, UniProt P08183); assay: as above; format: in vitro ADME
# T2 construct: in the Caco-2 cell line with and without verapamil; host or cells: Caco-2
# Protocol: as §1
# S. typhimurium TA1535 = conditions: 7i 40 µg/plate
# five bacterial strains = assay: Ames test, overall conclusion on five bacterial strains; conditions: ±S9, 0.37 to 40 µg/plate
# S2R = molecular target: T3, S2R (Homo sapiens, UniProt Q5BJF2); assay: S2R binding assay, [3H]-DTG, Jurkat cell membranes
# T3 construct: host or cells: Jurkat cell membranes
# Protocol: The binding assays were performed by Eurofins Cerep (Poitiers, France) according to Ganapathy. Briefly, S1R)binding assay was carried out by incubating Jurkat cell membranes ([…] protein per tube) with [^3H] (+)-pentazocine (15 nM) and a range of concentrations of test compounds at 37 °C for 2 h in 5 mM Tris HCl buffer (pH = 7.4). The S2R binding assay was performed by incubating Jurkat cell membranes ([…] protein per tube) with [^3H]-DTG (25 nM) in the presence of (+)-pentazocine (1 mM), to saturate S1R, and a range of concentrations of test compounds at room temperature for 1 h in 5 mM Tris HCl buffer (pH = 7.4). Bound radioactivity was measured using liquid scintillation counting. Nonspecific binding was determined in both assays, under similar conditions, as remaining in the presence of […] unlabeled haloperidol. Inhibition constants (Ki) were calculated from the IC50 values according to the method of Cheng and Prusoff.
# T2 sequence (P08183 whole entry): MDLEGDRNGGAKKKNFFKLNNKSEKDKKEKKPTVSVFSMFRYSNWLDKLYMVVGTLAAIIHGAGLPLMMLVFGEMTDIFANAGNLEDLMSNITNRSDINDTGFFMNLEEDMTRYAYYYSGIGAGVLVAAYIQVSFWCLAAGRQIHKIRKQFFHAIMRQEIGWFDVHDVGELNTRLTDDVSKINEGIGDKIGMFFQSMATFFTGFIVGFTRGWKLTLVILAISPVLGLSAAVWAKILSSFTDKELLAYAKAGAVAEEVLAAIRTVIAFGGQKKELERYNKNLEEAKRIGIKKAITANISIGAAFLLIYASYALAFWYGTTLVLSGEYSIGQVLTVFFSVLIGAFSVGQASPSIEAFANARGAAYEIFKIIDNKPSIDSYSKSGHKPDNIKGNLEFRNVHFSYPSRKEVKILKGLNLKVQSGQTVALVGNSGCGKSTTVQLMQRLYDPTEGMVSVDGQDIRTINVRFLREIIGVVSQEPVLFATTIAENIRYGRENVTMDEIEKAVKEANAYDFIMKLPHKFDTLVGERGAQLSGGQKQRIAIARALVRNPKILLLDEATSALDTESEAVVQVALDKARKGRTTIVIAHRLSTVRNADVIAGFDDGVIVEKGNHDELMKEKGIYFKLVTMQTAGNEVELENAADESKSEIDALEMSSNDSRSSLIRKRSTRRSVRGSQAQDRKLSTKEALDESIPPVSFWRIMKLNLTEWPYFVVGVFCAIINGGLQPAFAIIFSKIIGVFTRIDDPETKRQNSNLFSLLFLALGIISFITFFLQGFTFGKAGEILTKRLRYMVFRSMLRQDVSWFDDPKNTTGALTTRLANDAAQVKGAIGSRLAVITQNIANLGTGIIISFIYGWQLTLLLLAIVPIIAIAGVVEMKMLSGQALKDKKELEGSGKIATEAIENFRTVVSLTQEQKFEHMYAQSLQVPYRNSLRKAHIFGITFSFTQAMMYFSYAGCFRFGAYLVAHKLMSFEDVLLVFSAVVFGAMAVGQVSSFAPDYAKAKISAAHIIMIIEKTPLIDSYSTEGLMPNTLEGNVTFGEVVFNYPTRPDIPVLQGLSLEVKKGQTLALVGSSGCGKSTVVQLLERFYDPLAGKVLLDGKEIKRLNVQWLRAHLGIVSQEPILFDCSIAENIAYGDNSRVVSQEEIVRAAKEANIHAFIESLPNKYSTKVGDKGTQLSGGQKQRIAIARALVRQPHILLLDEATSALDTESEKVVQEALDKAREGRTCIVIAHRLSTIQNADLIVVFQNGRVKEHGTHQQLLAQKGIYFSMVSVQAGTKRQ
# T3 sequence (Q5BJF2 whole entry): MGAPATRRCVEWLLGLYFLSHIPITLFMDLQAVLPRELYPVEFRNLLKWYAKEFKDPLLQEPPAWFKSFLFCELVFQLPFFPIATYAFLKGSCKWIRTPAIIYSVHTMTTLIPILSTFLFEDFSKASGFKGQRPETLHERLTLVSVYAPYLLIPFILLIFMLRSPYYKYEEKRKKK
structure (smiles),measurement,setting,value
CN(CCCNC(=O)c1ccc(Cl)cc1)Cc1ccccc1 [compound 7i],effect on S1R–BiP association,"S1R–BiP complex; 1 and 10 µM, 30-min incubation",significantly causes a dose-dependent dissociation
same,S1R functional activity,S1R–BiP complex; S1R–BiP dissociation blocked by NE-100,agonist capacity
same,effect on S1R–BiP dissociation in presence of NE-100,S1R–BiP complex; co-treatment with NE-100 (10 µM),blocked
same,S1R antagonist capacity (co-treatment with PRE-084),S1R–BiP complex; co-treatment with PRE-084 (10 µM),absence of antagonist capacity
same,"modulation of CYP1A2 (induction, conclusion)",CYP1A2; three donors,No modulation
same,"CYPs induction CYP1A2, donor #1","CYP1A2; donor #1, cut-off (2)",2.7%
same,"CYPs induction CYP1A2, donor #2","CYP1A2; donor #2, cut-off (5)",1.5%
same,"CYPs induction CYP1A2, donor #3","CYP1A2; donor #3, cut-off (2)",1.9%
same,"modulation of CYP3A4 (induction, conclusion)",CYP3A4; three donors,No modulation
same,"CYPs induction CYP3A4, donor #1","CYP3A4; donor #1, cut-off (4)",4.2%
same,"CYPs induction CYP3A4, donor #2","CYP3A4; donor #2, cut-off (6)",1.6%
same,"CYPs induction CYP3A4, donor #3","CYP3A4; donor #3, cut-off (3)",0.8%
same,"modulation of CYP2B6 (induction, conclusion)",CYP2B6; three donors,No modulation
same,"CYPs induction CYP2B6, donor #1","CYP2B6; donor #1, cut-off (3)",4.1%
same,"CYPs induction CYP2B6, donor #2","CYP2B6; donor #2, cut-off (4)",4.1%
same,"CYPs induction CYP2B6, donor #3","CYP2B6; donor #3, cut-off (2)",4.2%
same,Papp A→B at 10 µM,"P-gp [1]; pH 7.4, Caco-2, 10 µM, with verapamil, read-out: P-gp substrate, Verapamil, A/B pH7.4/7.4",28 ×10⁻⁶ cm/s
same,Papp B→A at 10 µM,"P-gp [1]; pH 7.4, Caco-2, 10 µM, with verapamil, read-out: P-gp substrate, Verapamil, B/A pH7.4/7.4",16.9 ×10⁻⁶ cm/s
same,efflux ratio at 10 µM,"P-gp [1]; Caco-2, pH 7.4/7.4, with verapamil, read-out: P-gp substrate, Verapamil, e-ratio",0.6
same,P-gp substrate (conclusion),P-gp [2]; comparison of efflux ratios with/without verapamil,not a substrate
same,Papp A→B at 10 µM,"P-gp [2]; human, pH 7.4, Caco-2, 10 µM, PBS (no verapamil), read-out: P-gp substrate, PBS, A/B pH7.4/7.4",45.8 ×10⁻⁶ cm/s
same,Papp B→A at 10 µM,"P-gp [2]; human, pH 7.4, Caco-2, 10 µM, PBS (no verapamil), read-out: P-gp substrate, PBS, B/A pH7.4/7.4",11.7 ×10⁻⁶ cm/s
same,efflux ratio at 10 µM,"P-gp [2]; human, Caco-2, pH 7.4/7.4, PBS (no verapamil), read-out: P-gp substrate, PBS, e-ratio",0.3
same,Ames TA1535 +S9 (Mean revertants/well per title),"S. typhimurium TA1535; +S9, positive control 2-anthramine 0.5",0.9
same,Ames TA1535 −S9 (Mean revertants/well per title),"S. typhimurium TA1535; −S9, positive control MNNG 0.25",1.3
same,"mutagenic effects (Ames, conclusion)",five bacterial strains,no mutagenic effects
O=C(NCCCNCc1ccccc1)c1ccc(Cl)cc1 [compound 7i-deMe],pKi,S2R,< 6.00
